From paper PMC13164762, “Development and Validation of an LC-MS/MS Method for the Quantitation of JNJ-64619178 (JNJ) in Mouse Plasma: Characterization of In Vitro and In Vivo Pharmacokinetic Properties” (Molecules, 2026)
Values after ≈ are worked out from the molar mass of the structure shown. Values joined by “and” are separate entries in the source; they are usually repeats but may differ in a detail not shown here. Equal values may be shown once. Read-outs that look alike come from different tables or passages of the source.

Key:
[1] = Matrix stability study in mouse plasma; assay type: in vitro ADME; conditions: 5 µg mL^−1, 37 °C, approximately 5 h, triplicate, read-out: concentration remaining (%)
Experimental: (§1) For the matrix stability study, JNJ was spiked into mouse plasma and brain homogenate at a final concentration of 5 µg mL^−1 and incubated at 37 °C for 5 h on a shaking water bath in triplicate. At the specified sampling times, 50 µL aliquots were taken in the collection plate, followed by quenching with 300 µL acetonitrile containing 10 µL IS. After final collection, samples were vortexed at 1000 rpm for 2 min and centrifuged at 2200× g for 10 min, and the collected supernatant was analyzed using LC-MS/MS. Stability was estimated by determining the % remaining after 5 h of incubation using Equation (1).(1) % remaining=Concentration5h/Concentration0h×100

[2] = Matrix stability study in mouse brain homogenate; assay type: in vitro ADME; conditions: 5 µg mL^−1, 37 °C, approximately 5 h, triplicate, read-out: concentration remaining (%)
Experimental: as §1

Kinetic solubility study = assay type: physicochemical; conditions: PBS, room temperature, read-out: kinetic aqueous solubility
Experimental: An amount of 500 µL of PBS was taken into a 96-well plate in the required rows. The required volume of the JNJ stock solution was spiked to make the final concentrations of 160, 80, 60, 50, 40, 20, 10, and 5 µg mL^−1. The plate was vortexed at 1000 rpm for 5 min and incubated at room temperature for 2 h. After incubation, aliquots of 100 µL of the samples were collected and diluted 2 times with acetonitrile. Diluted samples were centrifuged at 2200× g for 10 min. Then, 10 µL of supernatant was added to another collection plate, where previously 200 µL of the mobile phase supplemented with 10 µL IS was taken.

[3] = Blood-to-plasma ratio (Rb/p) study; assay type: in vitro ADME; conditions: balb/c mouse whole blood
Experimental: Freshly collected whole blood (400 µL) of balb/c mice was taken into an Eppendorf tube, and JNJ was spiked to obtain a final concentration at 5 µg mL^−1 following proper mixing. Blood and plasma samples were collected at 0, 30, and 60 min and processed using the previously described extraction procedure. Rb/p was then estimated by dividing the JNJ concentration in blood by the concentration obtained in plasma samples separated from blood using Equation (5), where CBlood is the drug concentration in blood and CPlasma is the drug concentration in plasma.(7) Rb/p=CBlood/CPlasma

[4] = Caco-2 permeability study; assay type: in vitro ADME, human; conditions: human, Caco-2, absorptive direction (apical to basal), read-out: apparent permeability (Papp), Caco-2
Experimental: (§2) Human colon carcinoma cells (Caco-2) were obtained from ATCC (American Type Culture Collection) (Manassas, VA, USA). Caco-2 cells were cultured in Dulbecco’s Modified Eagle’s Medium (DMEM), supplemented with 10% fetal bovine serum, 1% nonessential amino acids, 100 U mL^−1 penicillin, and 100 µg mL^−1 streptomycin. The cells were split upon reaching the 80–90% confluence to make them ready to seed. Afterwards, the cells were seeded at a density of 80,000 cells/well in a 12-well tissue culture plate with a 0.4 µm pore size, purchased from CELLTREAT Scientific Products (Pepperell, MA, USA), and incubated at 37 °C in an incubator with 5% CO2 conditions. […] The integrity of the monolayer was evaluated by measuring the transepithelial electrical resistance (TEER) value using EVOM2™ Epithelial Voltohmmeter purchased from World Precision Instruments Inc. (Sarasota, FL, USA).
(§3) JNJ was spiked at a final concentration of 10 µM to the apical side in a volume of 500 µL HBSS-HEPES (10 mM) buffer along with the positive control (propranolol and atenolol) in respective wells. […] After determined timepoints (0, 30, 60, 90, and 120 min), 100 µL aliquots were collected from the apical or basolateral sites, each time replacing with an equal volume of blank buffer. […]

Caco-2 cell monolayer = assay: Caco-2 permeability study; assay type: in vitro ADME, human; conditions: absorptive direction (apical to basal), 10 µM
Experimental: as §2, §3

[5] = In vivo PK study (plasma, IV and PO); design: species or system balb/c mice; conditions: for half-life: read-out: t1/2 (terminal half-life) (converted)
Experimental: We performed in vivo PK analysis for JNJ by 2.5 mg kg^−1 IV and 10 mg kg^−1 PO routes of administration in healthy male balb/c mice. We could quantify a dynamic range of concentrations in in vivo PK samples with our established LC-MS/MS method. Non-compartmental analysis (NCA) was performed using Phoenix software version 8.3 to estimate PK parameters from the observed plasma concentration–time profile data. […] The NCA PK parameter data are represented in Table 6. For the oral PK study, male balb/C mice were grouped into two groups, with n = 4 for each group. Throughout the experiment, mice had free access to adequate food and water. The oral solution comprised 20% (v/v) polyethylene glycol 400, 10% (v/v) propylene glycol, 10% (v/v) ethanol, 2% (v/v) DMSO, 5% cremophore, and water as the rest of the volume. For the IV dose administration, 12 male balb/C mice were used in the study, divided into two groups. The IV solution used the same composition as the oral study. Doses of 10 and 2.5 mg kg^−1 were used for oral and IV routes, respectively. Blood samplings were done at 5 min, 15 min, 30 min, 1 h, 2 h, 4 h, 8 h, and 24 h. After collection, blood samples were centrifuged immediately at 956× g for 10 min, and plasma was separated in an Eppendorf tube and stored at −80 °C until processed. In the oral PK study, tissues—liver, kidney, spleen, lung, and brain—were collected at 2, 8, and 24 h to assess the biodistribution pattern of JNJ in the oral route.

[6] = male, mouse, IV 2.5 mg kg^−1, balb/c mice, plasma, n = 6
[7] = male, mouse, PO 10 mg kg^−1, balb/c mice, plasma, n = 4

Nc1nc2cc(CC[C@H]3C[C@@H](n4ccc5c(N)ncnc54)[C@H](O)[C@@H]3O)ccc2cc1Br [JNJ, JNJ-64619178]
remaining at 5 h, 5 µg mL^−1 [1]: ~100% | remaining at 5 h, 5 µg mL^−1 [2]: ~100% | solubility kinetic at 2 h (Kinetic solubility study): 3 ± 0.6 µg/mL (≈ 6.21 µM) | blood plasma ratio at 5 µg mL^−1 [3]: ~0.7 | Papp A→B at 120 min, 10 µM [4]: 3.4 ± 0.4 ×10⁻⁶ cm/s | apparent permeability (Papp), Caco-2 (Caco-2 cell monolayer): 3 ± 0.4 (×10^−6) cm s^−1 | underestimation of observed plasma clearance by predicted hepatic clearance ([5]; 1.6 vs 3.8 mL min^−1 kg^−1, mice): approximately 2.3 fold | in vivo clearance as % of mice hepatic blood flow ([5]; IV, hepatic blood flow 3.6 L h^−1 kg^−1): ~6% | volume of distribution relative to total body water ([5]; IV, total body water 68.6% of body weight): ~ 1.6 times | CL (plasma clearance) ([5]; PO 10 mg kg^−1, balb/c mice, oral CL normalized by bioavailability (%)): 3.83 ± 0.67 mL/min/kg | Vz (volume of distribution) ([5]; PO 10 mg kg^−1, balb/c mice, oral Vz normalized by bioavailability (%)): 0.88 ± 0.32 L/kg | Tmax ([5]; PO 10 mg kg^−1, mice, plasma): ~ 30 min | Cmax relative to IC50 in the HD-MB cell line ([5]; PO 10 mg kg^−1, times higher than IC50 (821 ng mL^−1)): ~ 3 times | clearance ([5]; male, balb/c, mouse, plasma, 2.5 mg kg^−1, IV, equivalent to 0.23 L h^−1 kg^−1, read-out: observed plasma clearance): 3.8 mL/min/kg | Tmax ([5]; male, balb/c, mouse, plasma, iv, 2.5 mg/kg, IV 2.5 mg kg^−1, balb/c mice, plasma, n = 6, read-out: Tmax (converted)): 6.6 ± 4.8 min | Tmax ([5]; male, balb/c, mouse, plasma, po, 10 mg/kg, PO 10 mg kg^−1, balb/c mice, plasma, n = 4, read-out: Tmax (converted)): 25.2 ± 8.4 min | Tmax ([5]; male, balb/c, mouse, plasma, po, 10 mg/kg, PO 10 mg kg^−1, mice, plasma, read-out: Tmax (converted)): 30 min | clearance ([5]; male, mouse, plasma, IV 2.5 mg kg^−1, balb/c mice, n = 6, read-out: CL (plasma clearance) (converted)): 3.83 mL/min/kg | Vd ([5]; male, mouse, plasma, IV 2.5 mg kg^−1, balb/c mice, n = 6, read-out: Vz (volume of distribution)): 1.2 ± 0.7 L/kg | half-life ([5]; male, mouse, plasma, IV 2.5 mg kg^−1, balb/c mice, n = 6): 198 ± 66 min | half-life ([5]; male, mouse, plasma, PO 10 mg kg^−1, balb/c mice, n = 4): 156 ± 42 min | bioavailability ([5]; male, mouse, plasma, PO 10 mg kg^−1 vs IV 2.5 mg kg^−1, balb/c mice): ~15% and 15% | AUC [5, 6]: 11600 ng·h/mL | Cmax [5, 6]: 4940 ± 1220 ng/mL | AUC [5, 7]: 6800 ± 1270 ng·h/mL | Cmax [5, 7]: 2780 ± 1030 ng/mL
